Molecules are shown by their SMILES.

Holding throughout (assay): biochemical
One test has as its target T1, BIKE (Homo sapiens, UniProt Q9NSY1).
T1 construct: gene BMP2K; catalytic domain-containing construct
Also on record: Thermal shift assay (DSF, SYPRO Orange), 2 uM kinase domain, mean delta Tm of triplicates versus DMSO. Conditions: read-out: BIKE. How it is done: (§1) All measurements were performed in triplicate and mean values were reported for all compounds (Table S1). […] However, NAKs are often omitted from selectivity panels, including commercial screens.

A further test has as its target T2, MPSK1 (Homo sapiens, UniProt O75716).
T2 construct: gene STK16; catalytic domain-containing construct
Set-up: Thermal shift assay (DSF, SYPRO Orange), 2 uM kinase domain, mean delta Tm of triplicates versus DMSO. As to conditions: read-out: MPSK1. How it is done: as §1

Another test has as its target T3, GAK (Homo sapiens, UniProt O14976).
T3 construct: catalytic domain-containing construct
T3 sequence (O14976 1-1311): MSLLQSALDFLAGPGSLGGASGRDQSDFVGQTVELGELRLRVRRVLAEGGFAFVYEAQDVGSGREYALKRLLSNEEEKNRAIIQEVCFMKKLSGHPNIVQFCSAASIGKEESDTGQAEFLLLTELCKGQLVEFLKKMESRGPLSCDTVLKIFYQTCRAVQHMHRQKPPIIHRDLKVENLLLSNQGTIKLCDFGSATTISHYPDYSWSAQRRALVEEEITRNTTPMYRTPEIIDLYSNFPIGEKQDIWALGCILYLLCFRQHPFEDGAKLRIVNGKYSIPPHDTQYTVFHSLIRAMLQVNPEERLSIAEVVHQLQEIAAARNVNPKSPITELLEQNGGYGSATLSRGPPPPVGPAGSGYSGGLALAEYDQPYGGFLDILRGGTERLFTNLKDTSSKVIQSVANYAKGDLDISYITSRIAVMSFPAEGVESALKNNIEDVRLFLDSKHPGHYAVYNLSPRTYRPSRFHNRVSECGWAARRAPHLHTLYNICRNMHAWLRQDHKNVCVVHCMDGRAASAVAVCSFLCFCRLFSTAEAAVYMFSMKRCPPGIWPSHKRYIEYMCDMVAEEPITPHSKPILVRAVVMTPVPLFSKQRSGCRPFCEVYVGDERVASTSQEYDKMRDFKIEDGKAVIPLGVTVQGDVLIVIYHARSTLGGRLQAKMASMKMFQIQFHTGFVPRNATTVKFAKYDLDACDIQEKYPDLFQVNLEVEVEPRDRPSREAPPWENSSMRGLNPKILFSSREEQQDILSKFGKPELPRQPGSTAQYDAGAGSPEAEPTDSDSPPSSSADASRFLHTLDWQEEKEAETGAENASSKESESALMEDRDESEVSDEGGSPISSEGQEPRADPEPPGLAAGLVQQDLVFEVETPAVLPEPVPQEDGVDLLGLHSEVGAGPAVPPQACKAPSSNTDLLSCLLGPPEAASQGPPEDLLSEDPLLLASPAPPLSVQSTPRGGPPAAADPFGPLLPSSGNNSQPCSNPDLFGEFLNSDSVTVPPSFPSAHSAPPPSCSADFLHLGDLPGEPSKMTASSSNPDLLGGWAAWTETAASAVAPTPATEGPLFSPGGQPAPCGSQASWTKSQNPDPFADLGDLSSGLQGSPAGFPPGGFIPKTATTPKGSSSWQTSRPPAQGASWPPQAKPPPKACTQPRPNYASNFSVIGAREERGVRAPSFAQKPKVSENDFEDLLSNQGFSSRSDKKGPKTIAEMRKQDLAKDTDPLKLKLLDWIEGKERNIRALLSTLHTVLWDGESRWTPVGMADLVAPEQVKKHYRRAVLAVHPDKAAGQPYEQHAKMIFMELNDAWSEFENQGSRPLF
Set-up: Thermal shift assay (DSF, SYPRO Orange), 2 uM kinase domain, mean delta Tm of triplicates versus DMSO. As to conditions: read-out: GAK. How it is done:
as §1

In the next test the target is AAK1 (Homo sapiens, UniProt Q2M2I8). Set-up: kinase domain; Thermal shift assay (DSF, SYPRO Orange), 2 uM kinase domain, mean delta Tm of triplicates versus DMSO. As to conditions: read-out: AAK1. How it is done:
as §1

T2 sequence (O75716 whole entry, the tested form may be a part): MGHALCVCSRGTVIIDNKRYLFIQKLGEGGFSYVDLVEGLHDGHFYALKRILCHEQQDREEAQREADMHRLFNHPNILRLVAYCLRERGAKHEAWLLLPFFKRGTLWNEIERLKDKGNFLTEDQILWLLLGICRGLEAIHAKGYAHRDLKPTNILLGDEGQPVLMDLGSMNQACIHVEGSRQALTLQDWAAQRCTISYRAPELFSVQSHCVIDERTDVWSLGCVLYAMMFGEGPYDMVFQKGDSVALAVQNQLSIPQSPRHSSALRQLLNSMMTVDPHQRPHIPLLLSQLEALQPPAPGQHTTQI
AAK1, sequence (Q2M2I8 27-365 limits assumed): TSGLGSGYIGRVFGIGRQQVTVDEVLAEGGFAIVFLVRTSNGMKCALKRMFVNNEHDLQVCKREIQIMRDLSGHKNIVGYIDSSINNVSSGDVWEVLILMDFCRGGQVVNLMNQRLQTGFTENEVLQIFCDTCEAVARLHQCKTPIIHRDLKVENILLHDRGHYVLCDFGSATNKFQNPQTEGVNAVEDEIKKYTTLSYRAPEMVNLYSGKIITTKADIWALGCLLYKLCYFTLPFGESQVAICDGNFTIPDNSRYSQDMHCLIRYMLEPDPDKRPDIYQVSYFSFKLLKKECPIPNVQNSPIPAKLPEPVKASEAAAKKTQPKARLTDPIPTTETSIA
T1 sequence (Q9NSY1 whole entry, the tested form may be a part): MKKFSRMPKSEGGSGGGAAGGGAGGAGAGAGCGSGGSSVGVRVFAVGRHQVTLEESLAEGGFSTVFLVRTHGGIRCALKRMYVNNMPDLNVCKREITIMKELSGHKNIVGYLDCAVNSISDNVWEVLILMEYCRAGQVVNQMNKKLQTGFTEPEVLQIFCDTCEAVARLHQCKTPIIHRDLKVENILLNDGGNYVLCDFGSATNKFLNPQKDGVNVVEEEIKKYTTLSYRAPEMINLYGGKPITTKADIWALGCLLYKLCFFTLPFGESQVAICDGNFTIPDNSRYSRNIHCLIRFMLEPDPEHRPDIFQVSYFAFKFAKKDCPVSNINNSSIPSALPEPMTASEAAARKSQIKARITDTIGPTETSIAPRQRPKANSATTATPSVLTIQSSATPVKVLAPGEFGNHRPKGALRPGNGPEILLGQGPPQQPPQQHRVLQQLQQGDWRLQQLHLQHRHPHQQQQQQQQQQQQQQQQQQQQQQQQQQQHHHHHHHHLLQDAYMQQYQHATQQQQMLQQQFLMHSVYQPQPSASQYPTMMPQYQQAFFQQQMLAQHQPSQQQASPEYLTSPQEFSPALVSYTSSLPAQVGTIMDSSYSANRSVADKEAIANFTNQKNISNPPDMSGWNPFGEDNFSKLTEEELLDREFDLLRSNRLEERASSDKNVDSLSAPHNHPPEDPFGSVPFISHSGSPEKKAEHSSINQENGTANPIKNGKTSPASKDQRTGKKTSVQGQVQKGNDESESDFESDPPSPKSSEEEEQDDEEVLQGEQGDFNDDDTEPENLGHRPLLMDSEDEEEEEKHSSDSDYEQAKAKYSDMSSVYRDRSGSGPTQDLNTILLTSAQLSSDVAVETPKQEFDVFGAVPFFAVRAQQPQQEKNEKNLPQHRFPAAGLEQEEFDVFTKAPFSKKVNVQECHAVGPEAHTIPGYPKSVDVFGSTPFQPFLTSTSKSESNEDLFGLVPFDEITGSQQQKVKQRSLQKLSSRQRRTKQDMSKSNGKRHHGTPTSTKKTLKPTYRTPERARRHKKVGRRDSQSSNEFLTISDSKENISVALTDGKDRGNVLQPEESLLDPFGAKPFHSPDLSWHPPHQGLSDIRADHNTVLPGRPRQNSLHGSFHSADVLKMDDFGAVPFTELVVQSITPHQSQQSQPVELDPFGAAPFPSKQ

`COc1cc2nccc(Oc3ccc(NC(=O)NC4CC4)c(Cl)c3)c2cc1C(N)=O` [Lenvatinib]: the ΔTm at 12.5 µM at BIKE stood at 2.49 °C; on MPSK1, 1.5 °C; at GAK, 2.03 °C; on AAK1, 2.07 °C.

Regarding `C[C@]12O[C@H](C[C@]1(O)CO)n1c3ccccc3c3c4c(c5c6ccccc6n2c5c31)CNC4=O` [Lestaurtinib], the ΔTm at 12.5 µM at BIKE came out at 16.5 °C; on MPSK1 it was 11.1 °C; on GAK, 10.8 °C; at AAK1 it was 13.6 °C.

Take `Cc1ccc(F)c(NC(=O)Nc2ccc(-c3cccc4[nH]nc(N)c34)cc2)c1` [Linifanib]: the ΔTm at 12.5 µM on BIKE came out at 5.72 °C; at MPSK1, 5.04 °C; on GAK, 2.49 °C; at AAK1, 1.96 °C.

On to `C[C@]1(O)C[C@@H](c2nc(-c3ccc4ccc(-c5ccccc5)nc4c3)c3c(N)nccn32)C1` [Linsitinib], for which the ΔTm at 12.5 µM on BIKE was 0.903 °C; at MPSK1, 0.73 °C; on GAK, -0.6 °C; at AAK1, 0.277 °C.

On to `Cn1cnc2c(F)c(Nc3ccc(Br)cc3F)c(C(=O)NOCCO)cc21` [MEK-162], for which the ΔTm at 12.5 µM on BIKE was 0.367 °C; at MPSK1 it was 0.6 °C; on GAK, -0.617 °C; at AAK1, 0.197 °C.

Consider `C=CCn1c(=O)c2cnc(Nc3ccc(N4CCN(C)CC4)cc3)nc2n1-c1cccc(C(C)(C)O)n1` [MK-1775], for which the ΔTm at 12.5 µM on BIKE worked out at 4.38 °C; at MPSK1 it was 1.18 °C; on GAK it was 5.08 °C; at AAK1, 4.03 °C.

As to `NC1(c2ccc(-c3nc4ccn5c(=O)[nH]nc5c4cc3-c3ccccc3)cc2)CCC1` [MK-2206], the ΔTm at 12.5 µM was 0.637 °C on BIKE, 1.1 °C at MPSK1, -0.83 °C at GAK and 1.1 °C at AAK1.

In the case of `Cc1ccc(NC(=O)c2ccc(CN3CCN(C)CC3)cc2)cc1Nc1nc(-c2cccnc2)cs1` [Masitinib], the ΔTm at 12.5 µM came to 0.833 °C on BIKE, 0.99 °C on MPSK1, 1.98 °C at GAK and 0.547 °C on AAK1.

Regarding `CO[C@@H]1[C@H](N(C)C(=O)c2ccccc2)C[C@H]2O[C@]1(C)n1c3ccccc3c3c4c(c5c6ccccc6n2c5c31)C(=O)NC4` [Midostaurin], the ΔTm at 12.5 µM at BIKE was 14.9 °C; on MPSK1, 10.4 °C; at GAK it was 6.33 °C; on AAK1 it was 12.8 °C.

With `CNC(=O)c1nn(C)c2c1C(C)(C)Cc1cnc(Nc3ccc(N4CCN(C)CC4)cc3)nc1-2` [Milciclib], the ΔTm at 12.5 µM on BIKE is 7.73 °C; at MPSK1, 10.1 °C; at GAK, 10.6 °C; at AAK1 it was 5.61 °C.

For the molecule `N#CCNC(=O)c1ccc(-c2ccnc(Nc3ccc(N4CCOCC4)cc3)n2)cc1` [Momelotinib], the ΔTm at 12.5 µM at BIKE turned out to be 15 °C; at MPSK1 it was 11.1 °C; on GAK, 7.03 °C; on AAK1 it was 14.6 °C.

As to `CC1(C)CNc2cc(NC(=O)c3cccnc3NCc3ccncc3)ccc21` [Motesanib], the ΔTm at 12.5 µM on BIKE was 0.3 °C; at MPSK1, 0.7 °C; on GAK, 0.437 °C; at AAK1, 0.467 °C.

For the molecule `CCN1CCN(c2ccc(Nc3cc(N(C)C(=O)Nc4c(Cl)c(OC)cc(OC)c4Cl)ncn3)cc2)CC1` [NVP-BGJ398], the ΔTm at 12.5 µM at BIKE is 0.763 °C; at MPSK1 it was 0.66 °C; on GAK, -0.197 °C; at AAK1, 0.41 °C.

Turning to `CCOc1cc2ncc(C#N)c(Nc3ccc(OCc4ccccn4)c(Cl)c3)c2cc1NC(=O)/C=C/CN(C)C` [Neratinib], the ΔTm at 12.5 µM on BIKE came to 1.97 °C; at MPSK1 it was 0.927 °C; on GAK, 2.52 °C; on AAK1 it was 0.98 °C.

With `Cc1cn(-c2cc(NC(=O)c3ccc(C)c(Nc4nccc(-c5cccnc5)n4)c3)cc(C(F)(F)F)c2)cn1` [Nilotinib], the ΔTm at 12.5 µM on BIKE was found to be 1.06 °C; at MPSK1 it was 2.48 °C; at GAK it was 5.36 °C; on AAK1, 1.13 °C.

In the case of `COc1cccc2cc(-c3nc([C@H]4CC[C@H](C(=O)O)CC4)n4ncnc(N)c34)[nH]c12` [OSI-027], the ΔTm at 12.5 µM at BIKE is 0.31 °C; on MPSK1 it was 0.92 °C; on GAK, -0.547 °C; at AAK1, 0.0767 °C.

Turning to `Cc1[nH]c(/C=C2\C(=O)Nc3ccccc32)c(C)c1CCC(=O)O` [Orantinib], the ΔTm at 12.5 µM was 12 °C at BIKE, 5.87 °C on MPSK1, 3.99 °C at GAK and 6.55 °C on AAK1.

`CN(c1ccccc1CNc1nc(Nc2ccc3c(c2)CC(=O)N3)ncc1C(F)(F)F)S(C)(=O)=O` [PF 431396]: the ΔTm at 12.5 µM was 9.5 °C on BIKE, 13.9 °C at MPSK1, 5.02 °C at GAK and 4.81 °C on AAK1.

Consider `Cn1cc(-c2[nH]c3cc(NC(=O)[C@H](N)C4CCCCC4)cc4c3c2C=NNC4=O)cn1` [PF-00477736], for which the ΔTm at 12.5 µM on BIKE is 19.1 °C; on MPSK1 it was 6.45 °C; at GAK, 9.49 °C; on AAK1, 17.8 °C.

On to `Nc1nccc(-c2c(-c3ccc(F)cc3)ncn2C2CCCCC2)n1` [PF-670462], for which the ΔTm at 12.5 µM was 1.04 °C at BIKE, 1.83 °C on MPSK1, 6.13 °C on GAK and 1.68 °C on AAK1.

For `Cc1nc(Nc2n[nH]c3c2CN(C(=O)N[C@H](CN(C)C)c2ccccc2)C3(C)C)c2sccc2n1` [PF-03758309], the ΔTm at 12.5 µM on BIKE stood at 10.6 °C; on MPSK1, 8.65 °C; at GAK it was 4.73 °C; on AAK1, 5.65 °C.

Turning to `COc1ccc(-c2cc3c(C)nc(N)nc3n([C@H]3CC[C@H](OCCO)CC3)c2=O)cn1` [PF-04691502], the ΔTm at 12.5 µM on BIKE is 0.623 °C; at MPSK1 it was 1.43 °C; at GAK it was -0.593 °C; on AAK1, 0.327 °C.

For the molecule `CCc1cncnc1N1CCN(Cc2nc3ccc(C(F)(F)F)cc3[nH]2)CC1` [PF-04708671], the ΔTm at 12.5 µM was 0.45 °C at BIKE, 1.04 °C on MPSK1, -0.243 °C at GAK and 0.437 °C on AAK1.

As to `Nc1ncnc2c1c(COc1cccc(Cl)c1)nn2C1CCOCC1` [PF-4800567], the ΔTm at 12.5 µM at BIKE was 0.437 °C; on MPSK1, 0.933 °C; on GAK it was -0.663 °C; on AAK1, 0.283 °C.

For `Cc1ccc([N+](=O)[O-])cc1S(=O)(=O)N(C)/N=C/c1cnc2ccc(Br)cn12` [PIK-75], the ΔTm at 12.5 µM came out at 7.9 °C on BIKE, 9.97 °C at MPSK1, 3.07 °C on GAK and 5 °C at AAK1.

On to `CC(=O)c1c(C)c2cnc(Nc3ccc(N4CCNCC4)cn3)nc2n(C2CCCC2)c1=O` [Palbociclib], for which the ΔTm at 12.5 µM on BIKE stood at 5.02 °C; on MPSK1, 7.72 °C; on GAK, 0.733 °C; on AAK1, 2.94 °C.

Consider `Cc1ccc(Nc2nccc(N(C)c3ccc4c(C)n(C)nc4c3)n2)cc1S(N)(=O)=O` [Pazopanib], for which the ΔTm at 12.5 µM on BIKE came out at 7.25 °C; on MPSK1, 7.31 °C; at GAK it was 2.72 °C; on AAK1 it was 3.85 °C.
